These results are taken from US12221494B2, “Short synthetic peptides and their uses for treating retinal degenerative diseases and/or tissue injuries” (MacKay Memorial Hospital, priority 2019, dated 2025).

Assay [1] has as its system C57BL/6 mice, dry eye induced in controlled environment chamber (CEC). Kind of assay: Dry eye animal model, corneal fluorescein staining. In kind it is in vivo, mouse. Particulars: mice 14 days in CEC, then 100 μM peptide eye drop three times a day for 4 days (Day 4); day 0 score 3±0. Here is the method: Dry eyes were induced by placing mice in a controlled environment chamber (CEC) for 14 days in accordance with procedures previously described by Barabino et al (IVOS (2005) 46(8), 2766-2771). Mice placed in the CEC were exposed to a condition, in which relative humidity (RH) was maintained at <25%, temperature at 20-22° C., and airflow at about 15 L/min, for 12 hours per day. Control mice were kept in a normal environment (RH>50%, no air flow, temperature of 20-22° C.) for the same duration.
A common artificial tear formulation, 1% carboxymethylcelllulose (CMC) dissolved in balanced salt solution (BSS) was used as the peptide vehicle. Peptide (100 μM, about 0.7 μg peptide in 10 μl eye drop used for treating one eye) or 1% CMC vehicle was topically administered to eyes three times a day. To test whether the present synthetic peptide could exert any therapeutic action on dry eyes, mice were housed at CEC for 14 days without topical treatment, and then were treated with the present peptide for 4 days.
Animals were anesthetized by an intraperitoneal injection of a mixture of zoletil (6 mg/kg) and xylazine (3 mg/kg). Corneal epithelial injury was determined by staining with topical fluorescein (Fluor-I-Strip, Ayerst Laboratories, Philadelphia, PA). Corneal fluorescein staining was examined with a slit-lamp biomicroscope under cobalt blue light and photographed with a digital camera. Dye staining of the cornea was scored in a blinded manner as follows: score 0 for no punctuate staining; score 1 when less than one third of the cornea was stained; score 2 when two thirds or less was stained; and score 3 when more than two thirds was stained (Horwath-Winter J 2013).
Briefly, mice were housed at controlled environment chamber (CEC) for 14 days (set as Day 0) to induce corneal surface disruption. Corneal fluorescein staining was used to estimate the corneal surface injury and the animal with a staining score of 2 (after mice placed at CEC for 14 days) was subjected to peptide treatment. The 6-mer variant peptide formulation for the treatment of DED was described in Methods. […]

The subject of another assay is TNF-α mRNA. The assay can be described thus: Hyperosmotic stress-induced TNF-α gene expression in rabbit corneal epithelial cells (qPCR). It is filed as cell-based. Particulars: 20 μM peptide 6 h, then hyperosmotic medium (463 mOsM) 3 h, solvent 12.8-fold. How it is done:
(§1) Total RNA was extracted from cells using TRIzol (Invitrogen). Synthesis of cDNA was performed with 1 μg of total RNA at 50° C. for 50 min using oligo(dT) primers and reverse transcriptase (Superscript III; Invitrogen). Briefly, quantification of cDNA was performed in the LightCycler (Roche, Mannheim, Germany) using the DNA Master SYBR Green I kit (Roche) with the following cycling conditions: initial denaturation at 95° C. for 10 min, followed by 40 cycles at 95° C. for 10 s, 60° C. for 10 s, and 72° C. for 10 s and a 5-min terminal incubation at 72° C. The data were calculated with AACt. The expression was then normalized against the expression of glyceraldehyde-3-phosphate dehydrogenase (GAPDH). The PCR primers were mouse Survivin sense, 5′-[…]-3′ (SEQ ID NO: 27), anti-sense, 5′-[…]-3′ (SEQ ID NO: 28) (accession number: NM_001012273.1; PCR product: 136 bp); mouse GAPDH sense, 5′-[…]-3′ (SEQ ID NO: 29), anti-sense, 5′-[…]-3′ (SEQ ID NO: 30) (NM_001289726.1; 149 bp). For analysis rabbit inflammatory gene expression, The PCR primers were rabbit TNF-αsense, 5′-[…]-3′ (SEQ ID NO: 31), anti-sense, 5′-[…]-3′ (SEQ ID NO: 32) (accession number: NM 001082263.1); rabbit IL-1βsense, 5′-[…]-3′(SEQ ID NO: 33), anti-sense, 5′-[…]-3′ (SEQ ID NO: 34) (NM 001082201.1); rabbit GAPDH sense, 5′-[…]-3′ (SEQ ID NO: 35), anti-sense, 5′-[…]-3′ (SEQ ID NO: 36) (accession number:NM 001082253.1). The cycle threshold (Ct) values of the PCR product and a GAPDH (Glyceraldehyde 3-phosphate dehydrogenase) control mRNA were used to calculate relative quantities of mRNA.
Limbal stem epithelial cells (LSEC) were isolated from 6-month-old New Zealand white rabbits and continuously cultivated for 14 days byDMEM/F-12basalmedium based cell-suspension culture to achieve corneal-liked epithelial cell differentiation as previously described (Ho et al., Stem Cells. 2013; 31:1775). […] After 3 h, quantitative real-time PCR was used to estimate HOP-induced Tumor necrosis factor (TNF)-α and nterleukin-1 beta (IL-1β) expressions. […]
A general note: Quantitative PCR measures a nucleic acid by following its amplification.

For the next assay, the system named is survivin mRNA. The assay can be described thus: Real-time qPCR of survivin mRNA in C2C12 cells. In kind it is cell-based, mouse. Particulars: C2C12 cells in low serum media, 20 μM peptide, 6 h. How it is done: as §1
Similar to the approach in Example 1.2.1, the expression level of survivin mRNA in C2C12 cells was used as an indicator for the function of the 6-mer variants in Tables 3 to 5. Briefly, C2C12 cells in low serum media were treated with 20 μM the 6-mer variants for 6 h. […] The results also confirmed that alanine substation at the glutamic acid (E) residues would severely impair the 6-mer activity.

The test system of a further assay is STAT3. The assay can be described thus: Western blot of STAT3 phosphorylation in C2C12 cells. It is filed as cell-based, mouse. Particulars: C2C12 myoblast cells, 5 to 20 min after stimulation. Here is the method:
Cell lysis, fractionation, and SDS-PAGE were conducted in accordance with procedures described previously (Yang Y C et al., BMC Cancer 2007; 7:216). Antibodies used in this study were for Phospho-Stat3 and STAT3 (1:1000-fold dilution). Proteins of interest were detected using the appropriate IgG-HRP secondary antibody (Santa Cruz Biotechnology) and ECL reagent (Amersham Biosciences).
(A western blot detects proteins with antibodies after separation by electrophoresis.)

For the substance “NH2-(D-Ser)-Leu-Gly-Ala-Glu-Gln-COOH (SLGAEQ; HELM PEPTIDE1{[dS].L.G.A.E.Q}$$$$V2.0; SMILES CC(C)C[C@H](NC(=O)[C@H](N)CO)C(=O)NCC(=O)N[C@@H](C)C(=O)N[C@@H](CCC(=O)O)C(=O)N[C@@H](CCC(N)=O)C(=O)O) [6-mer dS]”, in assay [1], the “corneal fluorescein staining score” value is given as 1.4±0.2 score. The “mRNA expression of TNF-α, in words” value in the assay with TNF-α mRNA was “apparently repressed the mRNA expression of TNF-α and IL-1β”. The “survivin mRNA induction, in words” value in the assay with survivin mRNA is recorded as “increased the level of survivin mRNA”. In addition, in the assay on STAT3, the “STAT3 phosphorylation (immunoblot)” value is listed as “led to STAT3 phosphorylation”.
